# PubChem BioAssay (NCI)
#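 Assay format: 96-well plates, 48-hour exposure. GI50 marks 50% less growth. Definition used: TGI = concentration required for complete inhibition of growth.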
# Columns and labels:
# Assay in all cases: inhibition of tumour cell growth, NCI panel, 48 h
# [1] = test system: EKVX NSCLC
# [2] = test system: OVCAR-3 ovarian
# [3] = test system: NCI/ADR-RES ovarian
# [4] = test system: SK-MEL-5 melanoma
# [5] = test system: SK-MEL-2 melanoma
# [6] = test system: ACHN renal
# [7] = test system: OVCAR-8 ovarian
# [8] = test system: UACC-257 melanoma
# [9] = test system: M14 melanoma
# [10] = test system: SR leukemia
Structure (SMILES),GI50 [1] [µM],TGI [1] [µM],GI50 [2] [µM],TGI [2] [µM],GI50 [3] [µM],TGI [3] [µM],GI50 [4] [µM],TGI [4] [µM],GI50 [5] [µM],TGI [5] [µM],GI50 [6] [µM],TGI [6] [µM],GI50 [7] [µM],TGI [7] [µM],GI50 [8] [µM],TGI [8] [µM],GI50 [9] [µM],TGI [9] [µM],TGI [10] [µM],GI50 [10] [µM]
O=[N+]([O-])c1ccc(N/N=C\c2cc(Cl)ccc2O)nc1,8.05,> 100,0.42,12.1,0.388,8.32,1.81,8.25,3.24,29.4,0.696,39.4,0.97,14.1,1.82,7.38,1.19,7.27,–,–
ClC(=Nc1cccc2ccccc12)N(c1ccccc1)c1ccccc1,–,–,–,> 100,–,> 100,–,–,–,> 100,–,> 100,–,–,–,> 100,–,> 100,> 100,–
O=c1c(Cl)nnc2sc3ccccc3n12,24.2,> 100,34.4,> 100,13.3,41.9,37.3,> 100,> 100,> 100,2.3,9.92,40.8,> 100,–,–,22.2,91.9,> 100,13.1
CC(=O)c1ccc(Nc2cc(-n3ccnc3)nc3ccccc23)cc1,> 100,> 100,–,–,> 100,> 100,15.6,53,> 100,> 100,48.4,> 100,50.5,> 100,33.4,> 100,8.15,52,–,–
COc1cc[nH]c1/C=C1\C(=O)Nc2ccc(F)c(C#C[C@@H](O)[C@@H](N)[C@@H](C)O)c21,–,–,0.685,2.26,6.65,25,0.676,2.35,0.39,0.923,0.323,2.94,0.843,5.15,0.628,2.17,0.413,1.24,1.95,0.114
CCCCOC(=O)C(=O)C(CC(C(=O)Cc1ccccc1)c1ccccc1)C(=O)C=C(C)C (stereo unspecified),–,> 100,–,> 100,–,> 100,–,> 100,–,> 100,–,> 100,–,> 100,–,> 100,–,> 100,–,–
COc1ccc(/C(=C/c2cc(OC)c(OC)c(OC)c2)[N+](=O)[O-])cc1,1.96,4.32,1.66,3.14,2.47,7.55,1.69,3.11,2.04,4.92,1.54,2.88,2.67,8.12,1.67,3.48,1.79,3.72,–,–
OB([O][Hg][c]1ccccc1)[O][Hg][c]1ccccc1,–,–,0.0812,0.213,1.69,4.45,0.538,1.85,0.168,0.509,0.493,1.39,0.522,3.53,0.317,1.14,0.283,0.977,–,–
COC(=O)Nc1nc2ccc(C(=O)c3ccc[nH]3)cc2[nH]1,–,> 100,–,–,–,9.01,–,–,–,> 100,–,> 100,–,> 100,–,–,–,> 26.9,–,–
Cc1ccc(-c2c(C#N)c(N)nc(N3CCOCC3)c2C#N)o1,21.2,> 100,–,–,33.6,> 100,40.5,> 100,78.8,> 100,–,–,72.6,> 100,99.8,> 100,87.9,> 100,–,–
O=C(Nc1ccncc1)C(=O)c1cn(S(=O)(=O)c2ccc(Br)cc2)c2ccccc12,3.81,> 100,4.54,> 100,2.65,> 100,3.5,37.5,32,> 100,9.13,> 100,5.9,> 100,7.62,> 100,5.74,> 100,–,–
CC12OC(C(=O)C13CC3)C1C(=O)c3ccccc3C(=O)C12 (stereo unspecified),4.48,38.4,–,–,24.5,77,–,–,47.1,> 100,–,–,20.3,48.4,27.7,68.8,41,> 100,–,–
C1=CN2C[n+]3cccc(OCc4ccccc4)c3N=C2C(OCc2ccccc2)=C1,–,> 100,–,25,–,> 100,–,21.2,–,33.3,–,> 100,–,> 100,–,27.5,–,56.4,–,–
COc1cc2c(cc1OC)C(=O)C(Br)CC2 (stereo unspecified),–,–,2.5,6.88,4.5,37.3,1.7,3.19,3.6,9.98,1.86,3.7,3.28,11.7,3.02,11.3,2.72,7.1,> 100,3.49
O=C(CCCc1c[nH]c2ccccc12)NC1CC(=O)c2c(Br)sc(Br)c21 (stereo unspecified),18.9,37.3,10.4,29.3,23.3,70.3,14.5,30,30.5,> 100,16.5,30.4,9.41,> 100,19.2,48.1,–,–,6.79,2.62
CCOC(=O)c1cnc(SCc2ccc(Cl)c(Cl)c2)nc1N1CC1,3.8,18.6,2.63,7,2.91,8.72,3.39,12.6,3.26,11.1,3.12,13.2,3.6,30.2,4.78,19.8,2.89,11.7,–,–
Cc1cc2c(C)c3cc(C)c(N)cc3nc2cc1N,–,–,1.18,5.35,4.92,25.3,1.73,5.28,1.3,3.85,0.422,3.82,0.499,7.54,2.8,9.96,1.83,6.69,4.2,0.507
N#C/C(=C\c1c(-c2ccccc2)[nH]c2ccccc12)C(=O)c1ccc(Cl)cc1,5.51,> 100,1.52,4.65,0.575,12.6,0.782,12.5,7.09,> 39.3,6.69,> 55,6.16,> 47.9,30.2,> 87.3,0.725,> 100,–,–
C1CCC([PH+](C2CCCCC2)C2CCCCC2[PH+](C2CCCCC2)C2CCCCC2)CC1.[Au].[CH-]1CCCCC1C1CCCC[N-]1 (stereo unspecified),–,–,0.286,1.1,2.97,> 100,0.179,0.332,0.351,1.52,1,2.17,0.278,> 100,0.329,2.24,0.425,2.27,> 100,0.392
Cn1cc(-c2ccc(=O)n(Cc3cccc(-c4ncc(OCCN5CCOCC5)cn4)c3)n2)cn1,–,–,58,> 100,37.5,> 100,19.6,59.1,> 88.3,> 100,> 83.6,> 100,36.5,> 100,48.7,> 100,84.2,> 100,> 100,76.4
COc1cccc(NC(=O)c2sc3nc4c(cc3c2N)CCCC4)c1,–,–,0.329,2.38,0.485,> 100,0.303,2.67,0.69,18.6,0.953,> 100,2.58,> 100,0.727,> 100,–,–,12.7,0.217
CCCCCCCCCCCCc1ccc(C(=O)/C=C/C(=O)O)cc1,4.09,17.1,1.91,3.47,7.78,24.5,14.5,28.7,–,–,1.73,3.15,3.44,12.9,3.79,15.2,1.79,4.17,3.07,0.423
COc1ccc(N(C)c2nc(C)nc3ccccc23)cc1,< 0.01,40.8,< 0.01,< 0.01,< 0.01,–,< 0.01,< 0.01,–,–,< 0.01,> 91.8,< 0.01,> 63.1,11.3,27,< 0.01,14.9,> 36.5,< 0.01
